Results published in publication PMC6249039 (Journal of medicinal chemistry, 2018).

What was measured:
influenza = type: cell-based
[1] = cited from earlier work
HIV IN = HIV IN (Human immunodeficiency virus type 1 group M subtype B, UniProt P04585); type: biochemical; conditions: 200 μM
[2] = biological target: human carbonic anhydrase II (hCAII) (Homo sapiens, UniProt P00918); assay: Cross-inhibition screen, human carbonic anhydrase II; type: biochemical; conditions: 200 μM
HDAC-6 = biological target: T1, HDAC-6 (Homo sapiens, UniProt Q9UBN7); assay: Cross-inhibition screen, HDAC-6; type: biochemical; conditions: 200 μM
T1 sequence (Q9UBN7 1-1215): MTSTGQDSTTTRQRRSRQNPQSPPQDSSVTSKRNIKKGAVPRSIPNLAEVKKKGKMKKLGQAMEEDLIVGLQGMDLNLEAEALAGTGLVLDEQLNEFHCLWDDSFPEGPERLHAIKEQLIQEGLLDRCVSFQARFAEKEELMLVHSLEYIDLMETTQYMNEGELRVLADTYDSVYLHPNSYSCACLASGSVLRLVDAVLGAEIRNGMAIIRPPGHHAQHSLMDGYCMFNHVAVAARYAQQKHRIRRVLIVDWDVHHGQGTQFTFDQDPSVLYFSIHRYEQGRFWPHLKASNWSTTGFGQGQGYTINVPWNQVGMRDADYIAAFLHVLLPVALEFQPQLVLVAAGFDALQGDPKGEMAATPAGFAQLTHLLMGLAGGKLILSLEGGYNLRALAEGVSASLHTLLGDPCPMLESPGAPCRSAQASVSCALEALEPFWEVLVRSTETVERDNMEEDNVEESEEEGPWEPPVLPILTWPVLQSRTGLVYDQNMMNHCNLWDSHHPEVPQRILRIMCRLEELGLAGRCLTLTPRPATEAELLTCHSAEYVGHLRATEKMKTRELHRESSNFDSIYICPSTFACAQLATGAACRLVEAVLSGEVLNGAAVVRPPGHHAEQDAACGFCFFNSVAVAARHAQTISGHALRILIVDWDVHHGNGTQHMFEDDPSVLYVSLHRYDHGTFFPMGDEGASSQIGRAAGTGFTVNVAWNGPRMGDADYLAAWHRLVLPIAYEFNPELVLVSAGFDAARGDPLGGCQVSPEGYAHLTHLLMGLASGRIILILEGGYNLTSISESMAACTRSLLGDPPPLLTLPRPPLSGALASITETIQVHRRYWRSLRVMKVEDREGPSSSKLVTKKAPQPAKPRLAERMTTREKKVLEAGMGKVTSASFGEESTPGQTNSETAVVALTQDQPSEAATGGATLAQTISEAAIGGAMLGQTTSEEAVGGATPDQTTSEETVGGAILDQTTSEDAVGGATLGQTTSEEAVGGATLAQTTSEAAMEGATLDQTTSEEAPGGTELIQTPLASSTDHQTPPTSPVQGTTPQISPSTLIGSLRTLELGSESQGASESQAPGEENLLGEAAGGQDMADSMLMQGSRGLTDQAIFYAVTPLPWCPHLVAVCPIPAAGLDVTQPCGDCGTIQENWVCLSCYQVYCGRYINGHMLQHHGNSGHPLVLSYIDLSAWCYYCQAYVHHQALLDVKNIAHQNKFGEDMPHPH

Compound | Antiviral activity in cell-based assays (influenza) | further results
Cc1cc(=S)c(O)c(C(=O)O)o1 [Compound 22] | little antiviral activity | 
O=C(O)c1cccc(O)c1O [Compound 7] |  | pKa reported, first value ([1]; phenolic oxygen): 10.30; pKa reported, second value ([1]; phenolic oxygen): 13.48
O=c1c(O)ccccc1O [Compound 32, α-hydroxytropolone] | little antiviral activity | 
O=C(O)c1cccc(=O)n1O [Compound 5] |  | pKa reported ([1]; N-hydroxy donor oxygen): 7.51
Cc1cc(O)c(=O)c(O)cc1C(=O)O [Compound 33, 5-Methyl-2,7-dihydroxytropolone-4-carboxylic acid] | little antiviral activity | 
O=C(O)c1occc(=O)c1O [Compound 3] | little antiviral activity | 
O=c1cc[nH]c(-c2nnn[nH]2)c1O [Compound 27] | little antiviral activity | 
Cc1cc(C(=O)O)c(O)c(=O)[nH]1 [Compound 18] | little antiviral activity | 
Cc1cc(=O)c(O)c(C(=O)O)[nH]1 [Compound 17, 3-Hydroxy-6-methyl-4-oxo-1,4-dihydropyridine-2-carboxylic acid] | little antiviral activity | 
Cc1cc(=O)c(O)c(C(=O)O)o1 [Compound 1, 3-Hydroxy-6-methyl-4-oxo-4H-pyran-2-carboxylic acid] | little antiviral activity | Percent inhibition, HIV IN 3'-processing activity (HIV IN): no inhibition; Percent inhibition, hCAII [2]: no inhibition; Percent inhibition, HDAC-6 (HDAC-6): no inhibition
